This note sets out measurements from ChEMBL document CHEMBL1155658, “Isolation and structures of schleicherastatins 1-7 and schleicheols 1 and 2 from the teak forest medicinal tree Schleichera oleosa” (2000).

SMILES strings stand for the structures. Converted amounts (≈) assume the structure as drawn.

Format in all cases: functional
Test [1] relates to P388. The test can be described thus: Growth inhibition of mouse P388 cells.
Test [2] deals with SF-295. The test can be described thus: Growth inhibition of human SF295 cells.
Test [3] concerns KM-20L2. Briefly: Growth inhibition of human KM20L2 cells.
Test [4] deals with NCI-H460. Briefly: Growth inhibition of human NCI-H460 cells.
The subject of test [5] is OVCAR-3. The test can be described thus: Growth inhibition of human OVCAR-3 cells.
In test [6] the test system is BXPC-3. Briefly: Growth inhibition of human BXPC3 cells.
The nature of test [7]: Growth inhibition of human prostate cancer cells. To be noted: Cancer cell lines.

For `COC(=O)c1ccc(O)c(O)c1` [METHYL PROTOCATECHUATE], in test [1] (read-out: ED50 (the source's name)), the EC50 is 1.4 µg/mL (≈ 8.33 µM).

Take `CC[C@H](CC[C@@H](C)C1CC[C@H]2[C@@H]3[C@@H](OC)C=C4C[C@@H](O)CC[C@]4(C)[C@H]3CC[C@]12C)C(C)C` (some centres not stated) [SCHLEICHEOL 1]: the GI50 in test [1] turned out to be 14 µg/mL (≈ 31.5 µM); in test [2] it was 3.2 µg/mL (≈ 7.2 µM); in test [3], 2.5 µg/mL (≈ 5.62 µM); in test [4], 1.8 µg/mL (≈ 4.05 µM); in test [5], 2.1 µg/mL (≈ 4.72 µM); in test [6], 3.3 µg/mL (≈ 7.42 µM). Also, in test [7], the GI50 stood at 1.8 µg/mL (≈ 4.05 µM).

As for `CC[C@H](CC[C@@H](C)C1CC[C@H]2C3[C@H](OC)C=C4C[C@@H](O)CC[C@]4(C)[C@H]3CC[C@]12C)C(C)C` (some centres not stated) [SCHLEICHEOL 2], the GI50 in test [1] worked out at 15 µg/mL (≈ 33.7 µM); in test [2] it was 1.9 µg/mL (≈ 4.27 µM); in test [3], 1.2 µg/mL (≈ 2.7 µM); in test [4] it was 2.2 µg/mL (≈ 4.95 µM); in test [5], 2.5 µg/mL (≈ 5.62 µM); in test [6], 1.4 µg/mL (≈ 3.15 µM). This compound gave a GI50 in test [7] of 1.6 µg/mL (≈ 3.6 µM).

In turn, `CC[C@H](C[C@@H](O)[C@@H](C)[C@H]1CC[C@H]2[C@@H]3[C@@H](OC)C=C4C[C@@H](O)CC[C@]4(C)[C@H]3CC[C@]12C)C(C)C` [SCHLEICHERASTATIN 1] yielded a GI50 in test [1] of 0.19 µg/mL (≈ 0.412 µM).

In test [1], `CC[C@H](C[C@@H](O)[C@@H](C)[C@H]1CC[C@H]2[C@@H]3[C@H](OC)C=C4C[C@@H](O)CC[C@]4(C)[C@H]3CC[C@]12C)C(C)C` [SCHLEICHERASTATIN 2] gave a GI50 of 0.72 µg/mL (≈ 1.56 µM). This GI50 is about 3.8-fold higher than that of the compound before.

In test [1], `CO[C@H]1C=C2C[C@@H](O)CC[C@]2(C)[C@H]2CC[C@]3(C)C([C@H](C)[C@H](O)C[C@@H](C)C(C)C)CC[C@H]3[C@H]12` (some centres not stated) [SCHLEICHERASTATIN 3] registered a GI50 of 1.2 µg/mL (≈ 2.69 µM).

With `CO[C@H]1C=C2C[C@@H](O)CC[C@]2(C)[C@H]2CC[C@]3(C)C([C@H](C)[C@H](O)C[C@H](C)C(C)C)CC[C@H]3[C@H]12` (some centres not stated) [SCHLEICHERASTATIN 4], halving of growth in test [1] (GI50) required 1.2 µg/mL (≈ 2.69 µM).

Take `CC[C@H](C[C@@H](O)[C@@H](C)C1CC[C@H]2[C@@H]3C(=O)C=C4C[C@@H](O)CC[C@]4(C)[C@H]3CC[C@]12C)C(C)C` (some centres not stated) [SCHLEICHERASTATIN 5]: the GI50 in test [1] was found to be 0.34 µg/mL (≈ 0.765 µM).

As for `CC(C)[C@H](C)C[C@@H](O)[C@@H](C)C1CC[C@H]2[C@@H]3C(=O)C=C4C[C@@H](O)CC[C@]4(C)[C@H]3CC[C@]12C` (some centres not stated) [SCHLEICHERASTATIN 6], halving of growth in test [1] (GI50) required 0.78 µg/mL (≈ 1.81 µM).

On to `CC(C)[C@@H](C)C[C@@H](O)[C@@H](C)C1CC[C@H]2[C@@H]3C(=O)C=C4C[C@@H](O)CC[C@]4(C)[C@H]3CC[C@]12C` (some centres not stated) [SCHLEICHERASTATIN 7], for which, in test [1], the GI50 is 0.78 µg/mL (≈ 1.81 µM).

The GI50 is the concentration giving 50% growth inhibition. High values mean less potent growth inhibition, low ones more potent growth inhibition.
